Results taken from patent US6551998B1, “Antimicrobial agents” (University of Louisville Research Foundation, Inc., priority 1999, dated 2003).
Converted amounts (≈) assume the structure as drawn. Square brackets hold non-standard residues; d marks the D form. Ends that are not written are not given here. 2Nal = N[C@@H](Cc1ccc2ccccc2c1)C(=O)O

Columns and labels:
[1] = system: Methicillin resistant Staphylococcus aureus (ATCC 33591); format: cell-based; details: for MRSA IC50: Table 4; for activity against MRSA (in words): gram-positive organism; for selectivity between MRSA and P. aeruginosa (in words): comparison of the MRSA and Ps A. IC50 of Table 4
Method: (§1) The antimicrobial compounds of the present invention were assayed using a standard microdilution assay against gram-positive bacteria Staphylococcus aureus (strain used: ATTC 29213) and methicillin-resistant strain used ATCC 33591) and the gram-negative bacteria Pseudomonas aeruginosa (strain used ATCC27853). The samples were assayed against 1-5×10^5 colony forming units, in Mueller-Hinton broth, at 37° C. The activity was determined following a 21 hour incubation. The IC50 values were calculated using sigmoidal curve fitting software. (Graphpad™, ISI Software, San Diego, Calif.) and correspond to the sample concentration which inhibits 50 percent of bacterial growth. The minimum inhibitory concenttration (MIC) is defined as the lowest concentration of sample at which no growth is detected by optical density between

[2] = system: Pseudomonas aeruginosa (ATCC27853); format: cell-based; details: for Ps A. IC50: Table 4; for activity against Pseudomonas aeruginosa (in words): gram negative organism
Method: as §1

[3] = system: Fusarium oxysporum; details: cited from earlier work
[4] = system: Fusarium moniliforme; details: cited from earlier work

Row | Compound | MRSA IC50 [1] [µg/mL] | Ps A. IC50 [2] [µg/mL] | also measured
1 | CC[C@H](C)[C@H](NC[C@@H](N)Cc1ccc2ccccc2c1)C(=O)NC(CC)(CC)C(=O)N[C@H](CN[C@@H](CC(C)C)C(=O)O)Cc1ccccc1 [Compound 21, H-2-Nalψ[CH2NH]Ile-Deg-Pheψ[CH2NH]Leu-OH] |  |  | IC50 ([1]; ATCC 33591): 34 µg/mL (≈ 50.4 µM); MIC ([1]; ATCC 33591): 40 to 162 µg/mL
2 | Ac-2-Nalψ[CH2NH]Lys-Ser-Pheψ[CH2NH]Leu-OH [Compound 24] | 60 | 180 | 
3 | Cecropin A: Cecropins are cationic linear peptides isolated from the hemolymph of the giant silk moth; insect-derived antimicrobial peptide (KWKLFKKIEKVGQNIRDGIIKAGPAVAVVGQATQIAK; ends and bridges not checked; UniProt P01507 27-63, looked up) |  |  | concentration giving total killing [3]: 12.4 µg/mL; concentration giving total killing [4]: 12.4 µg/mL
4 | H-2-Nal-Lys-Ser-Phe-Leu-OH (H-[2Nal]KSFL-OH; SMILES CC(C)C[C@H](NC(=O)[C@H](Cc1ccccc1)NC(=O)[C@H](CO)NC(=O)[C@H](CCCCN)NC(=O)[C@@H](N)Cc1ccc2ccccc2c1)C(=O)O) [Compound 26] | 184 | 388 | activity against MRSA (in words) [1]: modest activity in both assays; activity against Pseudomonas aeruginosa (in words) [2]: modest activity in both assays
5 | H-2-Nalψ[CH2NAc]Lys-Ser-Pheψ[CH2NH]Leu-OH [Compound 23] | 19.6 | 33.5 | activity against MRSA (in words) [1]: active against both; activity against Pseudomonas aeruginosa (in words) [2]: active against both
6 | H-2-Nalψ[CH2NAc]Met-Aib-Pheψ[CH2NH]Leu-OH [Compound 25] | 28.7 | > 500 | selectivity between MRSA and P. aeruginosa (in words) [1]: very selective; activity against MRSA (in words) [1]: quite active
7 | H-2-Nalψ[CH2NH]Lys(Ac)-Ser-Pheψ[CH2NH]Leu-OH [Compound 28] | 25.8 | 190 | 
8 | H-2-Nalψ[CH2NH]Lys-Ser-4-AMBψ[CH2NH]Leu-OH [Compound 36] | 37.5 | 32.2 | 
9 | H-2-Nalψ[CH2NH]Lys-Ser-Phe-Leu-OH (H-[2Nal]KSFL-OH; also: ψ[CH2NH] reduced bond between 2-Nal1 and Lys2) [Compound 27] | 37.8 | 65.4 | 
10 | H-2-Nalψ[CH2NH]Lys-Ser-Pheψ[CH2NAc]Leu-OH [Compound 30] | 26 | 50 | 
11 | H-2-Nalψ[CH2NH]Met-3-AMB-Pheψ[CH2NH]Leu-OH [Compound 34] | 47 | 230 | 
12 | H-2-Nalψ[CH2NH]Met-4-AMB-Pheψ[CH2NH]Leu-OH [Compound 33] | 17.6 | 163 | selectivity between MRSA and P. aeruginosa (in words) [1]: quite selective toward MRSA
13 | H-2-Nalψ[CH2NH]Met-Aib-Pheψ[CH2NH]Leu-NH2 [Compound 31] | 10.4 | 94 | 
14 | H-2-Nalψ[CH2NH]Nle-Aib-Pheψ[CH2NH]Leu-OH [Compound 32] | 35 | > 500 | 
15 | H-D-2-Nalψ[CH2NH]D-Lys-D-Ser-D-Pheψ[CH2NH]D-Leu-OH [Compound 29] | 18.8 | 13.9 | selectivity between MRSA and P. aeruginosa (in words) [1]: slight selectivity for the gram-negative organisms
16 | H-D-2-Nalψ[CH2NH]D-Met-Aib-D-Pheψ[CH2NH]D-Leu-OH [Compound 35] | 42.1 | 463 | 
17 | H-D-2-Nalψ[CH2NH]Lys-Ser-Pheψ[CH2NH]Leu-OH [Compound 22] | 10.9 | 9.2 | activity against MRSA (in words) [1]: active against both; activity against Pseudomonas aeruginosa (in words) [2]: active against both
